Legend:
MHV-A59 = test: In vivo test of acetaminophen against MHV-infected mice; set-up: species or system C57BL/6 mice; conditions: 0.25 mg/mL acetaminophen solution daily via oral gavage, MHV-A59 5×10^6 PFU/mouse i.p.
From the text: The present invention utilized the Mouse Hepatitis Virus (MHV) and swine virus PRRS as the infectious agents to evaluate the effectiveness of acetaminophen in vivo. We aimed to perform mouse and piglet survival experiments to completely assess acetaminophen against virus infection as a preclinical evaluation.
Intraperitoneal administration of MHV-A59 with high titer (5×10^6 PFU/mouse) on C57BL/6 mice to cause a high mortality rate. The MHV-infected mice were grouped as follows: 1. PBS vehicle control; 2. 0.25 mg/mL of acetaminophen solution treatment groups followed by treating acetaminophen daily via oral gavage. The viral administration cause loss of body weights on mice. […] These animal data strongly argue the potential application of acetaminophen in developing to an antiviral agent.

PRRS virus (PRRSV2) [1] = test: In vivo test of acetaminophen against PRRS-infected piglet; set-up: unit not given here
From the text: (§1) In this embodiment, the weaned piglets were selected according to their PRRS syndromes. The three piglets were randomly selected in accordance with the professional experience on the syndromes of PRRS and the […] principles of animal test were followed as well. Three infected piglets were proceeded for preliminary test of the effectiveness of antiviral drugs of PRRS.
(§2) Three infected piglets raised in an isolated pen of the same pig house. Eighty milliliter acetaminophen therapy was given three times orally. Their blood samples were test weekly. Unfortunately, piglet 1 was unable to make over the first week. The other 2 piglets were able make over the process.

PRRS virus (PRRSV2) [2] = test: as above; set-up: key: −: Negative; ±: Virus was detected at very low concentrations
From the text: as §1, §2

Mv1Lu cells = test: In vitro test for cytotoxicity of acetaminophen; type: cell-based, mink; conditions: five days of incubation; concentration as high as 1000 μg/mL
Description: Specifically, mink lung epithelial cells, Mv1Lu, were treated with acetaminophen.

PRRS virus (PRRSV2) [3] = test: In vivo test of acetaminophen against PRRS-infected piglet; conditions: 80 mL acetaminophen therapy three times orally
From the text: as §1, §2

Question: For `CC(=O)Nc1ccc(O)cc1` [acetaminophen], which “body weight of MHV-infected mice” value (MHV-A59; compared to MHV-only mice) is on record?
Answer: significantly retained the mouse weights

Question: And the “survival rate (printed as mortality rate) of MHV-infected mice” value (MHV-A59; virus vehicle control 100% death rate)?
Answer: 50%

Question: What about the “Concentration of PRRSV2 by RT-PCR” value (PRRS virus (PRRSV2) [1]; Piglet 1, test 1 (weekly blood sample)) of the same compound?
Answer: 7.7 × 10 ^5

Question: What about the “Concentration of PRRSV2 by RT-PCR” value (PRRS virus (PRRSV2) [1]; Piglet 2, test 2 (weekly blood sample), weekly blood test 2) of the same compound?
Answer: 1.3 × 10^3

Question: And the “Concentration of PRRSV2 by RT-PCR” value (PRRS virus (PRRSV2) [1]; Piglet 3, test 1 (weekly blood sample), weekly blood test 1)?
Answer: 8.2 × 10 ^4

Question: What about the “Concentration of PRRSV2 by RT-PCR” value (PRRS virus (PRRSV2) [1]; Piglet 3, test 3 (weekly blood sample), weekly blood test 3) of the same compound?
Answer: 2.9 × 10 ^2

Question: What about the “Concentration of PRRSV2 by RT-PCR” value (PRRS virus (PRRSV2) [2]; Piglet 2, test 1 (weekly blood sample), weekly blood test 1) of the same compound?
Answer: −

Question: And the “Concentration of PRRSV2 by RT-PCR” value (PRRS virus (PRRSV2) [2]; Piglet 2, test 3 (weekly blood sample), weekly blood test 3)?
Answer: −

Question: What about the “Concentration of PRRSV2 by RT-PCR” value (PRRS virus (PRRSV2) [2]; Piglet 3, test 2 (weekly blood sample), weekly blood test 2) of the same compound?
Answer: ±

Question: What about the “cytotoxicity on Mv1Lu cells” value (Mv1Lu cells) of the same compound?
Answer: no significant cytotoxicity

Question: What about the “virus concentration in the body” value (PRRS virus (PRRSV2) [3]; piglets 2 and 3) of the same compound?
Answer: decreased

Question: What about the “survival of PRRS-infected piglets” value (PRRS virus (PRRSV2) [3]; three infected piglets) of the same compound?
Answer: piglets 2 and piglet 3 survived
